# Source: publication PMC11521309, “A novel 4-aminoquinoline chemotype with multistage antimalarial activity and lack of cross-resistance with PfCRT and PfMDR1 mutants” (PLOS Pathogens, 2024)
# Where “and” joins values, the source holds several entries; their conditions need not be identical. Identical values can stand only once. Like-named read-outs stand apart in the source and are kept apart here.
# Columns and labels:
# [1] = test system: P. berghei ookinete formation; test: In vitro inhibition of ookinete formation (nLuc conversion assay), 24 h; format: cell-based, Plasmodium berghei; details: Plasmodium berghei; for activity at 10 µM: read-out: % Inhibition of ookinete conversion, 10 uM; for activity at 25 µM: read-out: % Inhibition of ookinete conversion, 25 uM; for activity at 100 µM: read-out: % Inhibition of ookinete conversion, 100 uM
# Method: To measure the inhibition of gamete conversion into ookinetes, a mutant luciferase-expressing P. berghei line (nLuc) was intraperitoneally injected into BALB/c mice. After 3–4 days, gametocyte-carrying blood samples were collected. In vitro compound testing was carried out by exposing 4 μL of infected blood mixed with 80 μL of culture medium (RPMI-1640 supplemented with 25 mM HEPES, 50 mg/L hypoxanthine, and 1% penicillin/streptomycin/neomycin at pH 8.3) to a range of drug concentrations for 24 hours at 21°C. Following the incubation, 20 μL of nLuc substrate (Nano-Glo Luciferase Assay System, Promega) was added to each well, and luminescence was measured in a luminometer. Increased light emission correlated with nLuc production and subsequent luciferase activity due to in vitro fertilization and ookinete conversion, as luciferase expression in this parasite line is regulated by the CTRP promoter that is ookinete-specific. Conversion inhibition was calculated as the percentage of luciferase activity of drug-exposed wells relative to untreated ones, from which IC50 values were interpolated.
# [2] = test system: Hz formation in ABS P. falciparum 3D7 parasites; test: Cellular heme fractionation assay; format: cell-based, Plasmodium falciparum
# Method: A heme fractionation assay was used to measure the inhibition of Hz formation in cultured ABS P. falciparum 3D7 parasites as previously described. […] Late trophozoites were harvested after 32 hours of incubation by lysing RBCs with 0.05% saponin followed by multiple washes with 1 × PBS (pH 7.5) to remove any residual traces of hemoglobin. The parasite pellet was resuspended in PBS and the total number of trophozoites isolated was quantified using flow cytometry. Contents of the trophozoite pellet were released by hypotonic lysis and sonication. After centrifugation, treatments with HEPES buffer (pH 7.4), sodium dodecyl sulfate, pyridine, and NaOH, allowed us to separate the fractions corresponding to the different heme species of interest. A microplate reader was employed to measure the UV-visible spectrum of each heme fraction as a Fe(III)heme-pyridine complex. Fractions of undigested hemoglobin, “free” heme, and Hz were quantified using a heme standard curve based on the mass of each heme-Fe species per mature trophozoite (fg/cell), obtained by dividing the total amount of each heme species by the corresponding number of parasites in that fraction as determined by flow cytometry. Statistical comparisons and analyses for trends employed Students’ t-tests (GraphPad Prism version 9).
# [3] = test system: P. falciparum Dd2^I218F; parameters: key to Phenotype, Dd2^I218F: S: sensitive; R: resistant; details: cited from earlier work
# [4] = test system: P. falciparum Dd2^M343L; parameters: key to Phenotype, Dd2^M343L: S: sensitive; R: resistant; details: cited from earlier work
# [5] = test system: P. falciparum 7G8^7G8; parameters: key to Phenotype, 7G8^7G8: S: sensitive; R: resistant; details: cited from earlier work
# [6] = test system: P. falciparum NF10^NF; parameters: method as in ref 1 Veiga et al. 2016; details: means ± SEM, N 6; ref 1 Veiga et al. 2016; read-out: IC50 NF10NF; cited from earlier work
# [7] = test system: P. falciparum FCB; details: read-out: IC50 FCB; means ± SEM, N 4; ref 2 Sidhu et al. 2006; cited from earlier work
# [8] = single replicates, Control = 100
# [9] = 0.5x IC50, 32 h, single replicates
# [10] = 0.5–3.0 × IC50 vs untreated control
# [11] = 1x IC50, 32 h, single replicates
# [12] = 2x IC50, 32 h, single replicates
# [13] = 2.5x IC50, 32 h, single replicates
# [14] = 3x IC50, 32 h, single replicates
# [15] = Dd2I218F, mean ± SEM, ref 2 (Dhingra et al., 2019)
smiles,measurement,setting,value
"CCN(CC)CCCC(C)Nc1ccnc2cc(Cl)ccc12 (stereo not drawn) [CQ, chloroquine]",activity at 10 µM,"[1]; Mean, Control mean 96.63",43.2%
same,activity at 10 µM,[1]; [8],38.1%
same,activity at 25 µM,"[1]; Mean, Control mean 96.63",14.4%
same,activity at 25 µM,[1]; [8],12.7%
same,activity at 50 µM,"[1]; read-out: % Inhibition of ookinete conversion, 50 uM, Mean, Control mean 96.63",0.49%
same,activity at 100 µM,"[1]; Mean, Control mean 96.63",0.22%
same,activity at 100 µM,[1]; [8],0.2%
same,inhibition at 10 µM,[1]; read-out: inhibition of zygote conversion into ookinetes,56.7%
same,%Hb,"[2]; 0.5x IC50, 32 h, Mean",3.19%
same,%Hemozoin,"[2]; 0.5x IC50, 32 h, Mean",88.03%
same,Hb Fe (fg/troph),"[2]; 0.5x IC50, 32 h, Mean",1.79 fg/troph
same,Heme Fe (fg/troph),"[2]; 0.5x IC50, 32 h, Mean",4.89 fg/troph
same,Hemozoin Fe (fg/troph),"[2]; 0.5x IC50, 32 h, Mean",48.61 fg/troph
same,Total Fe (fg/troph),"[2]; 0.5x IC50, 32 h, Mean",57.03 fg/troph
same,%Hb,[2]; [9],3.1577% and 3.5151% and 3.0401% and 3.0419%
same,%Heme,[2]; [9],10.1984% and 8.3472% and 8.0733% and 8.4973%
same,%Hemozoin,[2]; [9],86.6439% and 88.1377% and 88.8867% and 88.4608%
same,Hb Fe (fg/troph),[2]; [9],1.6883 fg/troph and 1.9552 fg/troph and 1.7265 fg/troph and 1.8935 fg/troph
same,Heme Fe (fg/troph),[2]; [9],5.4527 fg/troph and 4.6429 fg/troph and 4.5850 fg/troph and 5.2894 fg/troph
same,Hemozoin Fe (fg/troph),[2]; [9],46.3251 fg/troph and 49.0239 fg/troph and 50.4811 fg/troph and 55.0658 fg/troph
same,Total Fe (fg/troph),[2]; [9],53.47 fg/troph and 55.62 fg/troph and 56.79 fg/troph and 62.25 fg/troph
same,effect on Hz levels,[2]; [10],Hz levels only decreased significantly from 2 × IC50
same,effect on undigested Hb,[2]; [10],significant at 2.5 × IC50 of CQ only
same,effect on “free” heme,[2]; [10],significant increase in “free” heme starting at 0.5 × IC50
same,%Hb,"[2]; 1x IC50, 32 h, Mean",3.14%
same,%Hemozoin,"[2]; 1x IC50, 32 h, Mean",88.13%
same,Hb Fe (fg/troph),"[2]; 1x IC50, 32 h, Mean",1.74 fg/troph
same,Heme Fe (fg/troph),"[2]; 1x IC50, 32 h, Mean",5.05 fg/troph
same,Hemozoin Fe (fg/troph),"[2]; 1x IC50, 32 h, Mean",48.59 fg/troph
same,Total Fe (fg/troph),"[2]; 1x IC50, 32 h, Mean",56.08 fg/troph
same,%Hb,[2]; [11],2.4393% and 3.8543% and 3.1547% and 3.1175%
same,%Heme,[2]; [11],10.2450% and 7.2686% and 7.4306%
same,%Hemozoin,[2]; [11],87.3158% and 86.1923% and 89.5767% and 89.4519%
same,Hb Fe (fg/troph),[2]; [11],1.3251 fg/troph and 2.0733 fg/troph and 1.8303 fg/troph and 1.8137 fg/troph
same,Heme Fe (fg/troph),[2]; [11],5.5654 fg/troph and 5.3541 fg/troph and 4.2171 fg/troph and 4.3229 fg/troph
same,Hemozoin Fe (fg/troph),[2]; [11],47.4331 fg/troph and 46.3642 fg/troph and 51.9709 fg/troph and 52.0405 fg/troph
same,Total Fe (fg/troph),[2]; [11],54.32 fg/troph and 53.79 fg/troph and 58.02 fg/troph and 58.18 fg/troph
same,%Hb,"[2]; 2x IC50, 32 h, Mean",3.51%
same,%Hemozoin,"[2]; 2x IC50, 32 h, Mean",87.00%
same,Hb Fe (fg/troph),"[2]; 2x IC50, 32 h, Mean",1.98 fg/troph
same,Heme Fe (fg/troph),"[2]; 2x IC50, 32 h, Mean",5.58 fg/troph
same,Hemozoin Fe (fg/troph),"[2]; 2x IC50, 32 h, Mean",48.43 fg/troph
same,Total Fe (fg/troph),"[2]; 2x IC50, 32 h, Mean",56.59 fg/troph
same,%Hb,[2]; [12],3.5841% and 3.0885% and 3.9396% and 3.4358%
same,%Heme,[2]; [12],10.5037% and 10.6360% and 8.0922%
same,%Hemozoin,[2]; [12],85.9123% and 86.2755% and 87.3313% and 88.4720%
same,Hb Fe (fg/troph),[2]; [12],2.0351 fg/troph and 1.7333 fg/troph and 2.1697 fg/troph and 2.0058 fg/troph
same,Heme Fe (fg/troph),[2]; [12],5.9641 fg/troph and 5.9691 fg/troph and 4.8074 fg/troph and 4.7243 fg/troph
same,Hemozoin Fe (fg/troph),[2]; [12],48.7818 fg/troph and 48.4187 fg/troph and 48.0959 fg/troph and 51.6502 fg/troph
same,Total Fe (fg/troph),[2]; [12],56.78 fg/troph and 56.12 fg/troph and 55.07 fg/troph and 58.38 fg/troph
same,%Hb,"[2]; 2.5x IC50, 32 h, Mean",4.73%
same,%Heme,"[2]; 2.5x IC50, 32 h, Mean",10.26%
same,%Hemozoin,"[2]; 2.5x IC50, 32 h, Mean",85.01%
same,Hb Fe (fg/troph),"[2]; 2.5x IC50, 32 h, Mean",2.72 fg/troph
same,Heme Fe (fg/troph),"[2]; 2.5x IC50, 32 h, Mean",5.95 fg/troph
same,Hemozoin Fe (fg/troph),"[2]; 2.5x IC50, 32 h, Mean",47.56 fg/troph
same,Total Fe (fg/troph),"[2]; 2.5x IC50, 32 h, Mean",56.58 fg/troph
same,%Hb,[2]; [13],4.8862% and 4.8721% and 4.7430% and 4.4317%
same,%Heme,[2]; [13],10.8743% and 11.0956%
same,%Hemozoin,[2]; [13],84.2395% and 85.3413% and 84.1614% and 86.2810%
same,Hb Fe (fg/troph),[2]; [13],2.8007 fg/troph and 2.7933 fg/troph and 2.5619 fg/troph and 2.5547 fg/troph
same,Heme Fe (fg/troph),[2]; [13],6.2331 fg/troph and 5.6110 fg/troph and 5.9933 fg/troph and 5.3538 fg/troph
same,Hemozoin Fe (fg/troph),[2]; [13],48.2856 fg/troph and 48.9290 fg/troph and 45.4601 fg/troph and 49.7378 fg/troph
same,Total Fe (fg/troph),[2]; [13],57.32 fg/troph and 57.33 fg/troph and 54.02 fg/troph and 57.65 fg/troph
same,%Hb,"[2]; 3x IC50, 32 h, Mean",3.75%
same,%Heme,"[2]; 3x IC50, 32 h, Mean",14.98%
same,%Hemozoin,"[2]; 3x IC50, 32 h, Mean",81.27%
same,Hb Fe (fg/troph),"[2]; 3x IC50, 32 h, Mean",2.01 fg/troph
same,Heme Fe (fg/troph),"[2]; 3x IC50, 32 h, Mean",8.01 fg/troph
same,Hemozoin Fe (fg/troph),"[2]; 3x IC50, 32 h, Mean",43.26 fg/troph
same,Total Fe (fg/troph),"[2]; 3x IC50, 32 h, Mean",56.94 fg/troph
same,%Hb,[2]; [14],2.5119% and 4.3346% and 4.4230% and 3.7332%
same,%Heme,[2]; [14],15.7024% and 13.7857% and 15.6412% and 14.7736%
same,%Hemozoin,[2]; [14],81.7857% and 81.8796% and 79.9358% and 81.4933%
same,Hb Fe (fg/troph),[2]; [14],1.3141 fg/troph and 2.3188 fg/troph and 2.3892 fg/troph and 2.5358 fg/troph
same,Heme Fe (fg/troph),[2]; [14],8.2149 fg/troph and 7.3747 fg/troph and 8.4490 fg/troph and 10.0350 fg/troph
same,Hemozoin Fe (fg/troph),[2]; [14],42.7874 fg/troph and 43.8015 fg/troph and 43.1792 fg/troph and 55.3544 fg/troph
same,Total Fe (fg/troph),[2]; [14],52.32 fg/troph and 53.50 fg/troph and 54.02 fg/troph and 67.93 fg/troph
same,IC50,[3]; [15],36.7 ± 4.3 nM
same,IC90,[3]; [15],85.3 ± 4.9 nM
same,"Phenotype, Dd2^I218F","[3]; ref [19],[20],[51]",S
same,IC50,"[4]; Dd2M343L, mean ± SEM, ref 1 (Ross et al., 2018)",41.8 ± 1.9 nM
same,"Phenotype, Dd2^M343L","[4]; ref [19],[20],[51]",R
same,IC50,"[5]; 7G87G8, mean ± SEM, ref 3 (Kim et al., 2019)",83 ± 7.5 nM
same,"Phenotype, 7G8^7G8","[5]; ref [19],[20],[51]",R
same,IC50,[6],216 ± 15.3 nM
same,IC50,[7],217 ± 34.6 nM
